Measurements from patent US12679878B2, “CRF2 receptor agonists and their use in therapy” (SANOFI, priority 2020, dated 2026).
Read-outs that look alike come from different tables or passages of the source. Starred links: 1 amine or outer side, 2 acyl side, 3 side chain; linkers in the order of their positions; H or OH if unused. Non-standard residues stand in square brackets, D forms with d. Residues, ends and D or L forms follow the SMILES beside them. Groups on a side chain read outwards from the residue. *: point of attachment. C18 diacid = O=C(O)CCCCCCCCCCCCCCCCC(=O)*; γGlu = O=C(O)[C@H](CCC(=O)[*:2])N[*:1]; AEEA = NCCOCCOCC(=O)O; Aib = CC(C)(N)C(=O)O

Key:
human CRF2α receptor = biological target: T1, human CRF2α receptor (Homo sapiens, UniProt Q13324); assay: cAMP agonism at human CRF2 α receptor in TeloHEAC cells (Example 7); format: cell-based; details: cAMP HTRF, TeloHEAC cells stably expressing human CRF2 α
T1 construct: expressed in transfected cells; host or cells: TeloHEAC
T1 sequence (Q13324 1-411): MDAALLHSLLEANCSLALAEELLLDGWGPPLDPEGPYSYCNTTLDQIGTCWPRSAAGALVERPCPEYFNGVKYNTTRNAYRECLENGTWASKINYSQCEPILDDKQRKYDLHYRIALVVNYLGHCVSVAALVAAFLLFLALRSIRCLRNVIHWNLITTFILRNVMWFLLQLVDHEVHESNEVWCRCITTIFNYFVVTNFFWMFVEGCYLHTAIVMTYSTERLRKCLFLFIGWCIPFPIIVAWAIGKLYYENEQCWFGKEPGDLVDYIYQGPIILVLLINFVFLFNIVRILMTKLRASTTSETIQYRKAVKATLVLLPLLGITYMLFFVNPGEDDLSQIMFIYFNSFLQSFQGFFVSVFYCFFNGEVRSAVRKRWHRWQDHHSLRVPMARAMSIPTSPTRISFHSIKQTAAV
Outline: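 HTRF ratio 665/620 nm, read 1 h after lysis reagents, reports cAMP. Cells: thawed stocks, 2000/well, 30 min RT with compound in HBSS, 20 mM HEPES, 0 or 0.1% HSA, 2 mM IBMX. Activity normalised to UCN2 1000 nM = 100%; EC50 from half-maximal activation.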

rat CRF2R α receptor = assay: cAMP agonism at rat CRF2R α receptor in A7R5 rat aortic smooth muscle cells (Example 8); format: cell-based; details: cAMP HTRF, A7R5 rat aortic smooth muscle cell line, 0% HSA
Outline: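 Potency (EC50) is the concentration reaching half-maximal activation, with responses scaled so that 1000 nM urocortin 2 equals 100%. Intracellular cAMP was quantified by homogeneous time-resolved fluorescence at 665/620 nm, 1 h after lysis-buffer reagents. Compound stimulation lasted 30 min at room temperature on 2000 IBMX-treated (2 mM) cells per well in HEPES-buffered HBSS.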

CRF1R receptor = biological target: T2, CRF1R receptor (Homo sapiens, UniProt P34998); assay: cAMP activity at anti-target CRF1R, CRF1R-overexpression CHO cell line (Example 9); format: cell-based; details: CRF1R-overexpression CHO cell line; for EC50: 0% HSA; for Emax: read-out: Emax (%)
T2 construct: host or cells: CHO-K1 clone 2
T2 sequence (P34998 24-415): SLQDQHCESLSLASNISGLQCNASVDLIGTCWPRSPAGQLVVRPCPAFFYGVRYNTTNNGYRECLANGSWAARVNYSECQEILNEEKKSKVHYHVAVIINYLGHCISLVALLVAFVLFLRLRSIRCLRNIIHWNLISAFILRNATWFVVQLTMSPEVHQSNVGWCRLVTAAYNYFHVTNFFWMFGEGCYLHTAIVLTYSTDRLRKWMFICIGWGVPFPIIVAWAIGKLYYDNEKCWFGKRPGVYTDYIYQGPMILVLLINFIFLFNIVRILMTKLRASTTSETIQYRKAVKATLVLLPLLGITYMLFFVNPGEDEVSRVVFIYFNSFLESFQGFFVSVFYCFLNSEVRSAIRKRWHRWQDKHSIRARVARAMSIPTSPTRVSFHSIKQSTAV
Outline: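 Using thawed CRF1R-overexpressing CHO cells at 2000 per well, compound is applied for 30 min at RT in HBSS/HEPES buffer with IBMX. Cellular cAMP content is determined via HTRF, and percent activity is calculated against 1000 nM UCN2 defined as 100%.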

[1] = Solubility in buffer systems by UPLC-UV (Example 13); format: physicochemical
Outline: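 Quantitation used UV peak area from UPLC of the 1:10-diluted supernatant, set against a reference-compound standard curve with extinction coefficients adjusted for amino acid sequence.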

[2] = Physical stability, Thioflavin T fibrillation assay (Example 14); format: physicochemical; details: 3 mg/ml, 37° C. shaking
Description: The physical stability of the compounds was assessed using a Thioflavin T (ThT) assay.
The time course for fibril formation often follows the characteristic shape of a sigmoidal curve and can be separated into three regions: a lag phase, a fast growth phase, and a plateau phase. The typical fibril formation process starts with the lag phase in which the amount of partially folded peptide turned into fibrils is not significant enough to be detected. The lag-time corresponds to the time the critical mass of the nucleus is built. Afterwards, a drastic elongation phase follows and fibril concentration increases rapidly. Therefore, by measuring the increase in fluorescence intensity attributable to ThT as well as the lag time of the increase, the fibrillation tendency of a peptide can be determined, thereby providing a measure of the physical stability of the peptide.
In the present study, test compounds were diluted in buffer to a final concentration of 3 mg/ml.
The fibrillation tendencies of the peptides were determined under stress using a Fluoroskan Ascent FL or Fluoroskan Ascent fluorometer. […] Plates were sealed with Scotch Tape (Quiagen). Samples were stressed by continuous cycles of 10 s shaking at 960 rpm and 50 s rest period at 37° C. Fibril development was monitored by measuring fluorescence intensity every 20 minutes. For each sample, eight replicates were tested.

[3] = 0% HSA, read-out: EC50 [nM], 0% HSA
[4] = pH 7.4, Solubility in Buffer C [mg/ml]
[5] = Buffer A: 100 mM acetate buffer, pH 4.5
[6] = Buffer B: 100 mM acetate buffer, pH 4.5, 2.7 mg/ml m-cresol

SMILES | EC50 (human CRF2α receptor; [3]) [nM] | EC50 (rat CRF2R α receptor) [nM] | EC50 (CRF1R receptor) [nM] | Emax (CRF1R receptor) [%] | solubility at 1 h ([1]; pH 4.5, Solubility in Buffer B [mg/ml]) [µg/mL] | solubility at 1 h [1, 4] [µg/mL] | Increase in FI (fluorescence intensity) [2, 5] | Lag time [2, 5] [h] | Increase in FI (fluorescence intensity) [2, 6] | Lag time [2, 6] [h] | EC50 (human CRF2α receptor; 0.1% HSA, read-out: EC50 [nM], 0.1% HSA) [nM]
CC[C@H](C)[C@H](N)C(=O)N[C@H](C(=O)N[C@@H](CC(C)C)C(=O)N[C@@H](CO)C(=O)N[C@@H](CC(C)C)C(=O)N[C@@H](CC(=O)O)C(=O)N[C@H](C(=O)N1CCC[C@H]1C(=O)N[C@H](C(=O)N[C@@H](CCCCN)C(=O)N[C@@H](CC(C)C)C(=O)N[C@@H](CCCCNC(=O)COCCOCCNC(=O)COCCOCCNC(=O)CC[C@H](NC(=O)CCCCCCCCCCCCCCCCC(=O)O)C(=O)O)C(=O)N[C@@H](CCC(N)=O)C(=O)N[C@H](C(=O)N[C@@H](CC(C)C)C(=O)N[C@@H](CC(C)C)C(=O)N[C@@H](CCCCN)C(=O)N[C@@H](CCC(N)=O)C(=O)N[C@@H](CCC(=O)O)C(=O)N[C@@H](CCCNC(=N)N)C(=O)N[C@@H](CCC(N)=O)C(=O)N[C@@H](CCCCN)C(=O)N[C@@H](CCCCN)C(=O)N[C@@H](CCC(N)=O)C(=O)N[C@@H](CCCNC(=N)N)C(=O)N[C@@H](CCC(N)=O)C(=O)N[C@@H](CCC(N)=O)C(=O)N[C@@H](C)C(=O)N[C@@H](CCC(=O)O)C(=O)N[C@H](C(=O)N[C@@H](CC(N)=O)C(=O)NC(C)(C)C(=O)N[C@@H](CCC(N)=O)C(=O)N[C@H](C(=O)N[C@@H](CC(C)C)C(=O)N[C@@H](C)C(=O)N[C@@H](CCC(N)=O)C(=O)N[C@H](C(N)=O)C(C)C)[C@@H](C)CC)[C@@H](C)O)[C@@H](C)CC)[C@@H](C)CC)C(C)C)C(C)C [compound 75] (H-IVLSLDVPIKLK([AEEA-AEEA-γGlu-C18 diacid])QILLKQERQKKQRQQAETN[Aib]QILAQV-NH2) | 0.48 | 1.71 | > 1000 | 2.7 | > 9000 | > 7900 | No | >45 | No | >45 | –
CC[C@H](C)[C@H](NC(=O)[C@H](CCC(N)=O)NC(=O)[C@H](CCCCNC(=O)COCCOCCNC(=O)COCCOCCNC(=O)CC[C@H](NC(=O)CCCCCCCCCCCCCCCCC(=O)O)C(=O)O)NC(=O)[C@H](CC(C)C)NC(=O)[C@H](CCCCN)NC(=O)[C@@H](NC(=O)[C@@H]1CCCN1C(=O)[C@@H](NC(=O)[C@H](CC(=O)O)NC(=O)[C@H](CC(C)C)NC(=O)[C@H](CO)NC(=O)[C@H](CC(C)C)NC(=O)[C@@H](NC(=O)[C@@H](N)Cc1ccccc1)[C@@H](C)O)C(C)C)[C@@H](C)CC)C(=O)N[C@@H](CC(C)C)C(=O)N[C@@H](CC(C)C)C(=O)N[C@@H](CCCCN)C(=O)N[C@@H](CCC(N)=O)C(=O)N[C@@H](CCC(=O)O)C(=O)N[C@@H](CCCNC(=N)N)C(=O)N[C@@H](CCC(N)=O)C(=O)N[C@@H](CCCCN)C(=O)N[C@@H](CCCCN)C(=O)N[C@@H](CCC(N)=O)C(=O)N[C@@H](CCCNC(=N)N)C(=O)N[C@@H](CCC(N)=O)C(=O)N[C@@H](CCCCN)C(=O)N[C@@H](C)C(=O)N[C@@H](CCCCN)C(=O)N[C@@H](CCCCN)C(=O)N[C@@H](CC(N)=O)C(=O)N[C@@H](CCCCN)C(=O)N[C@@H](CCC(N)=O)C(=O)N[C@H](C(=O)N[C@@H](CC(C)C)C(=O)N[C@@H](CCC(=O)O)C(=O)N[C@@H](CCCNC(=N)N)C(=O)N[C@H](C(N)=O)C(C)C)[C@@H](C)CC [compound 146] (H-FTLSLDVPIKLK([AEEA-AEEA-γGlu-C18 diacid])QILLKQERQKKQRQKAKKNKQILERV-NH2; N-terminus assumed) | 0.11 | 0.22 | > 1000 | 1.03 | – | > 8800 | No | >45 | No | >45 | 4.36
